In ChEMBL document CHEMBL5356949, “Development of novel thiazolidine-2,4-dione derivatives as PPAR-γ agonists through design, synthesis, computational docking, MD simulation, and comprehensive in vitro and in vivo evaluation” (RSC Med Chem, 2023):
Active and inactive are the calls of the source.

Assays:
Rattus norvegicus [1] = experiment: Effect on serum ALT level in dexamethasone-induced Wistar rat model at 17.5 mg/kg, sc administered once daily for 11 days and fasted for 12 hrs at end of the experimental period by biochemical analysis; type: functional, organism-based; conditions: time 11.5 day
Rattus norvegicus [2] = experiment: Effect on serum AST level in dexamethasone-induced Wistar rat model at 17.5 mg/kg, sc administered once daily for 11 days and fasted for 12 hrs at end of the experimental period by biochemical analysis; type: functional, organism-based; conditions: time 11.5 day
Rattus norvegicus [3] = experiment: Antidiabetic activity against dexamethasone-induced Wistar rat model assessed as decrease in serum VLDL level at 17.5 mg/kg, sc administered once daily for 11 days and fasted for 12 hrs at end of the experimental period; type: functional, organism-based; conditions: time 11.5 day
Rattus norvegicus [4] = experiment: Hypolipidemic activity against dexamethasone-induced Wistar rat model assessed as decrease in serum HDL-c level at 17.5 mg/kg, sc administered once daily for 11 days and fasted for 12 hrs at end of the experimental period; type: functional, organism-based; conditions: time 11.5 day
Rattus norvegicus [5] = experiment: Antidiabetic activity against dexamethasone-induced Wistar rat diabetic model assessed as restoration of histopathological changes at 17.5 mg/kg, sc administered once daily for 11 days and fasted for 12 hrs at end of the experimental period by hematoxylin and eosin staining based microscopic analysis; type: functional, organism-based; conditions: time 11.5 day
Rattus norvegicus [6] = experiment: Hypolipidemic activity against dexamethasone-induced Wistar rat model assessed as decrease in serum TG level at 17.5 mg/kg, sc administered once daily for 11 days and fasted for 12 hrs at end of the experimental period; type: functional, organism-based; conditions: time 11.5 day
C2C12 [7] = experiment: Cytotoxicity against mouse C2C12 cells assessed as reduction in cell viability at 100 to 200 uM incubated for 24 hrs by MTT assay; type: toxicity, cell-based; conditions: c2c12, 24 h, dose 100-200 µM
C2C12 [8] = experiment: Antidiabetic activity in mouse C2C12 cells assessed as increase in glucose uptake incubated for 30 mins; type: functional, cell-based
C2C12 [9] = experiment: Upregulation of PPAR-gamma expression in mouse C2C12 cells by ELISA analysis; type: functional, cell-based; conditions: dose 6.25-100 µM
Rattus norvegicus [10] = experiment: Antidiabetic activity against dexamethasone-induced Wistar rat model assessed as decrease in serum glucose level at 17.5 mg/kg, sc administered once daily for 11 days and fasted for 12 hrs at end of the experimental period; type: functional, organism-based; conditions: time 11.5 day
Rattus norvegicus [11] = experiment: Hypolipidemic activity against dexamethasone-induced Wistar rat model assessed as decrease in serum triglyceride level at 17.5 mg/kg, sc administered once daily for 11 days and fasted for 12 hrs at end of the experimental period; type: functional, organism-based; conditions: time 11.5 day
Rattus norvegicus [12] = experiment: Hypolipidemic activity against dexamethasone-induced Wistar rat model assessed as decrease in serum LDL-c level at 17.5 mg/kg, sc administered once daily for 11 days and fasted for 12 hrs at end of the experimental period; type: functional, organism-based; conditions: time 11.5 day
Rattus norvegicus [13] = experiment: Effect on serum ALT level in dexamethasone-induced sc dosed Wistar rat model administered once daily for 11 days and fasted for 12 hrs at end of the experimental period by biochemical analysis; type: functional, organism-based; conditions: time 11.5 day
Rattus norvegicus [14] = experiment: Effect on serum AST level in dexamethasone-induced sc dosed Wistar rat model administered once daily for 11 days and fasted for 12 hrs at end of the experimental period by biochemical analysis; type: functional, organism-based; conditions: time 11.5 day
Rattus norvegicus [15] = experiment: Antidiabetic activity against dexamethasone-induced sc dosed Wistar rat model assessed as decrease in serum VLDL level administered once daily for 11 days and fasted for 12 hrs at end of the experimental period; type: functional, organism-based; conditions: time 11.5 day
Rattus norvegicus [16] = experiment: Hypolipidemic activity against dexamethasone-induced sc dosed Wistar rat model assessed as decrease in serum HDL-c level administered once daily for 11 days and fasted for 12 hrs at end of the experimental period; type: functional, organism-based; conditions: time 11.5 day
Rattus norvegicus [17] = experiment: Antidiabetic activity against dexamethasone-induced sc dosed Wistar rat diabetic model assessed as restoration of histopathological changes administered once daily for 11 days and fasted for 12 hrs at end of the experimental period by hematoxylin and eosin staining based microscopic analysis; type: functional, organism-based; conditions: time 11.5 day
Rattus norvegicus [18] = experiment: Hypolipidemic activity against dexamethasone-induced sc dosed Wistar rat model assessed as decrease in serum TG level administered once daily for 11 days and fasted for 12 hrs at end of the experimental period; type: functional, organism-based; conditions: time 11.5 day
Rattus norvegicus [19] = experiment: Antidiabetic activity against dexamethasone-induced sc dosed Wistar rat model assessed as decrease in serum glucose level administered once daily for 11 days and fasted for 12 hrs at end of the experimental period; type: functional, organism-based; conditions: time 11.5 day
Rattus norvegicus [20] = experiment: Hypolipidemic activity against dexamethasone-induced sc dosed Wistar rat model assessed as decrease in serum triglyceride level administered once daily for 11 days and fasted for 12 hrs at end of the experimental period; type: functional, organism-based; conditions: time 11.5 day
Rattus norvegicus [21] = experiment: Hypolipidemic activity against dexamethasone-induced sc dosed Wistar rat model assessed as decrease in serum LDL-c level administered once daily for 11 days and fasted for 12 hrs at end of the experimental period; type: functional, organism-based; conditions: time 11.0 day
C2C12 [22] = experiment: Upregulation of PPAR-gamma expression in mouse C2C12 cells at 1 uM by ELISA analysis; type: functional, cell-based

Measured: Activity

O=C(CN1C(=O)S/C(=C\c2cccs2)C1=O)Nc1cccc(C(F)(F)F)c1
active: Rattus norvegicus [1] | Rattus norvegicus [2] | Rattus norvegicus [3] | Rattus norvegicus [4] | Rattus norvegicus [5] | Rattus norvegicus [6] | C2C12 [8] | C2C12 [9] Dose-Dependent Effect | Rattus norvegicus [10] | Rattus norvegicus [11] | Rattus norvegicus [12]
Non-Toxic: C2C12 [7]

Cc1c(Cl)cccc1NC(=O)CN1C(=O)S/C(=C\c2cccs2)C1=O
Non-Toxic: C2C12 [7]
active: Rattus norvegicus [13] | Rattus norvegicus [14] | Rattus norvegicus [15] | Rattus norvegicus [16] | Rattus norvegicus [17] | Rattus norvegicus [18] | C2C12 [8] | Rattus norvegicus [19] | Rattus norvegicus [20] | Rattus norvegicus [21]

CCc1ccc(CCOc2ccc(CC3SC(=O)NC3=O)cc2)nc1 (stereo unspecified)
active: C2C12 [22]

O=C(CN1C(=O)S/C(=C\c2cccs2)C1=O)Nc1cc(Cl)c(Cl)cc1Cl
Non-Toxic: C2C12 [7]
active: Rattus norvegicus [1] | Rattus norvegicus [2] | Rattus norvegicus [3] | Rattus norvegicus [4] | Rattus norvegicus [5] | Rattus norvegicus [6] | C2C12 [8] | C2C12 [9] Dose-Dependent Effect | Rattus norvegicus [10] | Rattus norvegicus [11] | Rattus norvegicus [12]
